According to ChEMBL document CHEMBL1152354, “Design, synthesis and identification of novel colchicine-derived immunosuppressant” (Bioorg Med Chem Lett, 2009):
Active and inactive are the calls of the source. The rule behind the calls is not given here.

How the values were obtained:
Splenocyte [1] = test: Immunosuppressive activity in splenocytes assessed as inhibition of mixed lymphocyte reaction; assay type: functional, cell-based
[2] = Immunosuppressive activity in concanavalin A-activated T cell assessed as inhibition of lymphoproliferation after 3 days by beta-scintillation counting; assay type: functional, cell-based
Splenocyte [3] = test: Immunosuppressive activity in mouse splenocytes assessed as inhibition of allogenic mixed lymphocyte reaction; assay type: functional, cell-based
Splenocyte [4] = test: Ratio of IC50 of drug to IC50 of cyclosporin A for immunosuppressive activity in mouse splenocytes assessed as inhibition of allogenic mixed lymphocyte reaction; assay type: functional
[5] = Immunosuppressive activity in LPS-activated B lymphocyte assessed as inhibition of lymphoproliferation after 3 days by beta-scintillation counting; assay type: functional
RAW264.7 [6] = test: Cytotoxicity against mouse RAW264.7 cells at 0.01 to 10 uM; assay type: cell-based; conditions: raw264.7, 10 µM
RAW264.7 [7] = test: Immunosuppressive activity in mouse RAW264.7 cells assessed as inhibition of LPS-induced NO production at 0.01 to 10 uM; assay type: functional, cell-based
RAW264.7 [8] = test: Immunosuppressive activity in mouse RAW264.7 cells assessed as inhibition of LPS-induced iNOS expression at 0.01 to 10 uM; assay type: functional, cell-based
RAW264.7 [9] = test: Immunosuppressive activity in mouse RAW264.7 cells assessed as inhibition of LPS-induced TNFalpha expression level in at 0.01 to 10 uM; assay type: functional, cell-based
RAW264.7 [10] = test: Immunosuppressive activity in mouse RAW264.7 cells assessed as inhibition of LPS-induced NO production; assay type: functional, cell-based
RAW264.7 [11] = test: Immunosuppressive activity in mouse RAW264.7 cells assessed as inhibition of LPS-induced iNOS expression; assay type: functional, cell-based
Mus musculus = test: Immunosuppressive activity in BALB/c mouse skin allografted C57BL/6 mouse assessed as survival of allograft skin at 1 mg/kg, ip administered daily; assay type: functional; conditions: route intraperitoneal
[12] = Cytotoxicity against rat H42E cells assessed as intracellular ATP level; assay type: cell-based; conditions: read-out: TC50 (the source's name)
[13] = Cytotoxicity against rat H42E cells assessed as alteration in mitochondrial function by MTT assay; assay type: cell-based; conditions: read-out: TC50 (the source's name)
[14] = Antiproliferative activity against rat H42E cells assessed as cell number; assay type: cell-based
[15] = Cytotoxicity against rat H42E cells assessed as release of alpha-glutathione S transferase; assay type: cell-based; conditions: read-out: TC50 (the source's name)
[16] = Mus musculus, Splenocyte, read-out: IC50

| Compound | IC50 (Splenocyte [1]; [16]) [nM] | IC50 (Splenocyte [3]) [nM] | further results |
| --- | --- | --- | --- |
| COc1cc2c(c(OC)c1OC)-c1ccc(SC)c(=O)cc1[C@@H](NC(=O)c1cc(CO[N+](=O)[O-])ccc1C#N)CC2 | 290 |  |  |
| COc1cc2c(c(OC)c1OC)-c1ccc(SC)c(=O)cc1[C@@H](NC(=O)c1cc(CO[N+](=O)[O-])ccc1Cl)CC2 | 4 |  | IC50 [2]: 392 nM |
| COc1cc2c(c(OC)c1OC)-c1ccc(SC)c(=O)cc1[C@@H](NC(=O)c1cccc(CO[N+](=O)[O-])c1I)CC2 | 85 |  |  |
| COc1cc2c(c(OC)c1OC)-c1ccc(SC)c(=O)cc1[C@@H](NC(=O)c1cc(CO[N+](=O)[O-])ccc1-c1ccccc1)CC2 |  |  | IC50 (Splenocyte [1]; splenocyte): Not Active |
| COc1cc2c(c(OC)c1OC)-c1ccc(OC)c(=O)cc1[C@@H](NC(=O)c1ccc(CCl)cc1)CC2 |  | 320 | Ratio IC50 (Splenocyte [4]): 7 |
| COc1cc2c(c(OC)c1OC)-c1ccc(SC)c(=O)cc1[C@@H](NC(=O)c1ccc(CO[N+](=O)[O-])cc1)CC2 |  | 20 | IC50 [5]: 349 nM; IC50 [2]: 392 nM |
| COc1cc2c(c(OC)c1OC)-c1ccc(SC)c(=O)cc1[C@@H](NC(=O)c1ccc(Br)c(CO[N+](=O)[O-])c1)CC2 | 89 |  |  |
| COc1cc2c(c(OC)c1OC)-c1ccc(SC)c(=O)cc1[C@@H](NC(=O)c1cccc(CO[N+](=O)[O-])c1)CC2 | 68 | 70 | IC50 [5]: 1 nM; IC50 [2]: 1 nM; Activity (RAW264.7 [6]): Non-toxic; inhibition (RAW264.7 [7]): inactive; inhibition (RAW264.7 [8]): inactive; inhibition (RAW264.7 [9]): Active; Activity (RAW264.7 [10]): Dose-dependent effect; Activity (RAW264.7 [11]): Dose-dependent effect |
| COc1cc2c(c(OC)c1OC)-c1ccc(OC)c(=O)cc1[C@@H](NC(=O)c1cccc(CCl)c1)CC2 |  | 6300 |  |
| COc1cc2c(c(OC)c1OC)-c1ccc(OC)c(=O)cc1[C@@H](NC(=O)c1cccc(CO[N+](=O)[O-])c1)CC2 |  | 250 | Ratio IC50 (Splenocyte [4]): 25 |
| C/C=C/C[C@@H](C)[C@@H](O)[C@H]1C(=O)N[C@@H](CC)C(=O)N(C)CC(=O)N(C)[C@@H](CC(C)C)C(=O)N[C@@H](C(C)C)C(=O)N(C)[C@@H](CC(C)C)C(=O)N[C@@H](C)C(=O)N[C@H](C)C(=O)N(C)[C@@H](CC(C)C)C(=O)N(C)[C@@H](CC(C)C)C(=O)N(C)[C@@H](C(C)C)C(=O)N1C [CYCLOSPORINE] |  |  | Survival (Mus musculus): 11.8 days |
| COc1cc2c(c(OC)c1OC)-c1ccc(SC)c(=O)cc1[C@@H](NC(=O)c1cccc(CO[N+](=O)[O-])c1F)CC2 | 65 |  |  |
| COc1cc2c(c(OC)c1OC)-c1ccc(OC)c(=O)cc1[C@@H](N(C)C(=O)c1cccc(CO[N+](=O)[O-])c1)CC2 |  | > 100000 |  |
| COc1cc2c(c(OC)c1OC)-c1ccc(OC)c(=O)cc1[C@@H](NC(=O)c1ccc(CO[N+](=O)[O-])cc1)CC2 |  | 70 | Ratio IC50 (Splenocyte [4]): 5 |
| COc1cc2c(c(OC)c1OC)-c1ccc(SC)c(=O)cc1[C@@H](NC(=O)c1cccc(CO[N+](=O)[O-])c1C#N)CC2 | 58 |  |  |
| COc1cc2c(c(OC)c1OC)-c1ccc(SC)c(=O)cc1[C@@H](NC(=O)c1ccc(Cl)c(CO[N+](=O)[O-])c1)CC2 | 50 |  | CC50 [12]: 300 µM; CC50 [13]: 300 µM; CC50 [14]: 300 µM; CC50 [15]: 300 µM |
| COc1ccc(C(=O)N[C@H]2CCc3cc(OC)c(OC)c(OC)c3-c3ccc(SC)c(=O)cc32)cc1CO[N+](=O)[O-] | 15 |  |  |
| COc1cc2c(c(OC)c1OC)-c1ccc(OC)c(=O)cc1[C@@H](NC(C)=O)CC2 [COLCHICINE] |  | 2300 | IC50 [5]: 7.3 nM; IC50 [2]: 548 nM |
| COc1cc2c(c(OC)c1OC)-c1ccc(SC)c(=O)cc1[C@@H](NC(=O)c1ccc(F)c(CO[N+](=O)[O-])c1)CC2 | 31 |  |  |
| COc1cc2c(c(OC)c1OC)-c1ccc(SC)c(=O)cc1[C@@H](NC(=O)c1cc(CO[N+](=O)[O-])ccc1F)CC2 | 4 |  |  |
| COc1cc2c(c(OC)c1OC)-c1ccc(SC)c(=O)cc1[C@@H](NC(=O)c1cc(CO[N+](=O)[O-])ccc1I)CC2 | 103 |  |  |
| COc1cc2c(c(OC)c1OC)-c1ccc(SC)c(=O)cc1[C@@H](NC(=O)CCCO[N+](=O)[O-])CC2 |  | 210 | IC50 [5]: 1 nM; IC50 [2]: 582 nM; Activity (RAW264.7 [6]): Non-toxic |
| COc1cc2c(c(OC)c1OC)-c1ccc(SC)c(=O)cc1[C@@H](NC(=O)c1cccc(CO[N+](=O)[O-])c1Cl)CC2 | 8 |  | IC50 [2]: 3 nM; Survival (Mus musculus): 12.3 days |
| COc1cc2c(c(OC)c1OC)-c1ccc(SC)c(=O)cc1[C@@H](NC(=O)c1cccc(CO[N+](=O)[O-])c1[N+](=O)[O-])CC2 | 9 |  | IC50 [2]: 7 nM |
| COc1cc2c(c(OC)c1OC)-c1ccc(SC)c(=O)cc1[C@@H](NC(=O)c1cccc(CO[N+](=O)[O-])c1OC)CC2 | 700 |  |  |

Now from value to molecule, other results behind:

| IC50 (Splenocyte [1]; [16]) [nM] | IC50 (Splenocyte [3]) [nM] | Compound | further results |
| --- | --- | --- | --- |
|  | 4700 | COc1cc2c(c(OC)c1OC)-c1ccc(OC)c(=O)cc1[C@@H](NC(=O)CCCCl)CC2 |  |
| 49 |  | COc1cc2c(c(OC)c1OC)-c1ccc(SC)c(=O)cc1[C@@H](NC(=O)c1ccc(C#N)c(CO[N+](=O)[O-])c1)CC2 |  |
| 61 |  | COc1cc2c(c(OC)c1OC)-c1ccc(SC)c(=O)cc1[C@@H](NC(=O)c1cccc(CO[N+](=O)[O-])c1Br)CC2 |  |
| 434 |  | COc1cc2c(c(OC)c1OC)-c1ccc(SC)c(=O)cc1[C@@H](NC(=O)c1cccc(CO[N+](=O)[O-])c1-c1ccccc1)CC2 |  |
|  | 2500 | COc1cc2c(c(OC)c1OC)-c1ccc(N(C)C)c(=O)cc1[C@@H](NC(=O)c1ccc(CO[N+](=O)[O-])cc1)CC2 |  |
| 78 |  | COc1ccc(CO[N+](=O)[O-])cc1C(=O)N[C@H]1CCc2cc(OC)c(OC)c(OC)c2-c2ccc(SC)c(=O)cc21 |  |
|  | 10000 | COc1cc2c(c(OC)c1OC)-c1ccc(N(C)C)c(=O)cc1[C@@H](NC(=O)c1cccc(CO[N+](=O)[O-])c1)CC2 |  |
| 55 |  | COc1cc2c(c(OC)c1OC)-c1ccc(SC)c(=O)cc1[C@@H](NC(=O)c1ccc([N+](=O)[O-])c(CO[N+](=O)[O-])c1)CC2 |  |
| 54 |  | COc1cc2c(c(OC)c1OC)-c1ccc(SC)c(=O)cc1[C@@H](NC(=O)c1ccc(-c3ccccc3)c(CO[N+](=O)[O-])c1)CC2 |  |
| 89 |  | COc1cc2c(c(OC)c1OC)-c1ccc(SC)c(=O)cc1[C@@H](NC(=O)c1cc(CO[N+](=O)[O-])ccc1Br)CC2 |  |
| 68 |  | COc1cc2c(c(OC)c1OC)-c1ccc(SC)c(=O)cc1[C@@H](NC(=O)c1ccc(I)c(CO[N+](=O)[O-])c1)CC2 |  |
|  | 6600 | COc1cc2c(c(OC)c1OC)-c1ccc(N(C)C)c(=O)cc1[C@@H](NC(=O)CCCO[N+](=O)[O-])CC2 |  |
|  | 3500 | COc1cc2c(c(OC)c1OC)-c1ccc(OC)c(=O)cc1[C@@H](N(C)C(=O)CCCO[N+](=O)[O-])CC2 |  |
| 73 |  | COc1cc2c(c(OC)c1OC)-c1ccc(SC)c(=O)cc1[C@@H](NC(=O)c1cc(CO[N+](=O)[O-])ccc1[N+](=O)[O-])CC2 |  |
|  | > 100000 | COc1cc2c(c(OC)c1OC)-c1ccc(OC)c(=O)cc1[C@@H](N(C)C(=O)c1ccc(CO[N+](=O)[O-])cc1)CC2 |  |
|  | 10 | COc1cc2c(c(OC)c1OC)-c1ccc(OC)c(=O)cc1[C@@H](NC(=O)CCCO[N+](=O)[O-])CC2 | Ratio IC50 (Splenocyte [4]): 470 |
